The values below come from patent US20230091047A1 (priority 2019, published 2023).

The subject of data set [1] is HBV (HepG2.117 cell line, inducibly HBV producing). Nature of the data set: Anti-HBV activity: intracellular HBV DNA by real-time PCR in HepG2.117 cells after 3 days of treatment. Type of data set: cell-based, hepatitis B virus. In outline: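 Readout is intracellular HBV DNA, measured by real-time PCR with HBV-specific primers and probe after 3 days of exposure to serial compound dilutions. Cells are the stable HepG2.117 line, where HBV replication is induced in the absence of doxycycline.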

The next data set is described as follows: in vitro. Format: cell-based. Conditions: human, HepG2 or HepG2.117 cells, ATPlite, mean value. Put shortly: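 Luminescent ATP quantitation served as the viability endpoint following a 3- or 4-day incubation with test compounds.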
(In ATP-based viability assays light output follows the ATP content of the culture.)

Where [2] appears, read: 3-days incubation (unmarked values).
Setting [3] is: Hepatitis B virus, HepG2.117, 72 h, HepG2.117 cells, 3 days of treatment, intracellular HBV DNA by real-time PCR; mean value; read-out: EC50 (μM, mean value).
The mark [4] stands for this setting: Hepatitis B virus, HepG2.117, 72 h, HepG2.117 cells, intracellular HBV DNA by real-time PCR, 3 days of treatment, mean value; read-out: EC50 (μM, mean value).
[5] abbreviates: 3-days incubation (not marked with *).

Molecules are shown by their SMILES. Read-outs that look alike come from different tables or passages of the source.

For orientation: EC50 means the concentration that produces a half-maximal response. One may read the CC50 as the concentration giving 50% cytotoxicity.

Regarding `COc1ccc(CNc2nc3c(c(=O)n2-c2ccccc2OC)C[C@H](C)N(C(=O)c2ccc(Cl)c(Cl)c2)C3)cc1` (single isomer, unassigned) [Compound C36Ab], the EC50 in data set [1] (HepG2.117 cells, 3 days of treatment, intracellular HBV DNA by real-time PCR; mean value; read-out: EC50 (μM, mean value)) was 2.12 µM. In the data set “in vitro” (setting [2]), this compound came in with a CC50 at 3 days of over 50 µM.

In the case of `C#C[C@H]1CCCN1c1nc2c(c(=O)n1-c1ccc(C(=O)NC)cc1)C[C@@H](C)N(C(=O)c1ccc(Cl)c(Cl)c1)C2` (single isomer, unassigned) [Compound C350, 4-[(6R)-7-(3,4-dichlorobenzoyl)-2-[(2*R)-2-ethynylpyrrolidin-1-yl]-6-methyl-4-oxo-5,6,7,8-tetrahydropyrido[3,4-d]pyrimidin-3(4H)-yl]-N-methylbenzamide], in data set [1] (setting [3]), the EC50 was determined as 0.23 µM. In the data set “in vitro” (setting [2]), the CC50 at 3 days was over 50 µM.

With `CNC(=O)c1ccc(-n2c(NC(C)C)nc3c(c2=O)C[C@@H](C)N(C(=O)c2ccc(Cl)c(C(F)(F)F)c2)C3)cc1` [Compound C428], in data set [1] (setting [4]), the EC50 amounted to 0.03 µM. Also, the CC50 at 3 days in “in vitro” (setting [5]) is over 50 µM.

Consider `COc1ccccc1-n1c(N[C@H](C)c2ccccc2)nc2c(c1=O)CCN(C(=O)c1ccc(Cl)c(Cl)c1)C2` [Compound C44, 7-(3,4-dichlorobenzoyl)-3-(2-methoxyphenyl)-2-{[(1R)-1-phenylethyl]amino}-5,6,7,8-tetrahydropyrido[3,4-d]pyrimidin-4(3H)-one], for which, in data set [1] (setting [3]), the EC50 is 6.99 µM. For the same compound, the CC50 at 3 days in the data set “in vitro” (setting [2]) came to 25.3 µM.

As to `CC(C)Nc1nc2c(c(=O)n1-c1ccc(-c3cnc[nH]3)cc1)C[C@@H](C)N(C(=O)c1ccc(Cl)c(Cl)c1)C2` [Compound C213, (6R)-7-(3,4-dichlorobenzoyl)-3-[4-(1H-imidazol-5-yl)phenyl]-6-methyl-2-[(propan-2-yl)amino]-5,6,7,8-tetrahydropyrido[3,4-d]pyrimidin-4(3H)-one], the EC50 in data set [1] (setting [3]) worked out at 0.36 µM. Also, the CC50 at 3 days in “in vitro” (setting [2]) is over 50 µM.

As for `CNC(=O)c1ccc(-n2c(N[C@@H](C)c3ccc(OC(F)(F)F)cc3)nc3c(c2=O)C[C@@H](C)N(C(=O)c2ccc(Cl)c(Cl)c2)C3)cn1` [Compound C537], in data set [1] (setting [4]), the EC50 was 0.08 µM. In the data set “in vitro” (setting [5]), this compound displayed a CC50 at 3 days of over 50 µM.

`CNC(=O)c1ccc(-n2c(N[C@@H](C)c3ccccc3)nc3c(c2=O)C[C@@H](C)N(C(=O)c2ccc(Cl)c(Cl)c2)C3)c(Cl)c1` (single isomer, unassigned) [Compound C386a]: in data set [1] (setting [4]), the EC50 stood at 0.08 µM. The CC50 at 3 days in the data set “in vitro” (setting [5]) is over 50 µM.

Take `CC(C)Nc1nc2c(c(=O)n1-c1ccc(S(C)(=O)=O)cc1)CCN(C(=O)c1ccc(C(F)(F)F)c(Cl)c1)C2` [Compound C194, 7-[3-chloro-4-(trifluoromethyl)benzoyl]-3-[4-(methanesulfonyl)phenyl]-2-[(propan-2-yl)amino]-5,6,7,8-tetrahydropyrido[3,4-d]pyrimidin-4(3H)-one]: the EC50 in data set [1] (setting [3]) worked out at 0.55 µM. Besides, the CC50 at 3 days in the data set “in vitro” (setting [2]) is over 50 µM.

Turning to `C[C@H](Nc1nc2c(c(=O)n1-c1ccc(-n3cccn3)cc1)C[C@@H](C)N(C(=O)c1ccc(Cl)c(Cl)c1)C2)c1ccc(C(F)(F)F)cc1` [Compound C532], the EC50 in data set [1] (setting [4]) came out at 0.16 µM. The compound also registered a CC50 at 3 days in the data set “in vitro” (setting [5]) of over 50 µM.

For the compound `COc1ccccc1-n1c(N)nc2c(c1=O)CC(C)N(C(=O)c1ccc(Cl)c(Cl)c1)C2` (centres unmarked) [Compound C95, 2-amino-7-(3,4-dichlorobenzoyl)-3-(2-methoxyphenyl)-6-methyl-5,6,7,8-tetrahydropyrido[3,4-d]pyrimidin-4(3H)-one], the EC50 in data set [1] (setting [3]) is 1.02 µM. The compound further gave a CC50 at 3 days in “in vitro” (setting [2]) of over 50 µM.

As for `CNC(=O)c1cc(-n2c(N[C@@H](C)c3ccc(F)cc3)nc3c(c2=O)C[C@@H](C)N(C(=O)c2ccc(Cl)c(C(F)(F)F)c2)C3)n(C)n1` [Compound C658], the EC50 in data set [1] (setting [4]) was 0.07 µM. Further, the midpoint of cytotoxicity in “in vitro” (setting [5]), the CC50 at 3 days, lay at 32.2 µM.

As for `CNC(=O)c1ccc(-n2c(N[C@@H](C)c3ccc(F)cc3)nc3c(c2=O)C[C@@H](C)N(C(=O)c2ccc(Cl)c(C(F)(F)F)c2)C3)cc1` [Compound C651], in data set [1] (setting [4]), the EC50 is 0.05 µM. The same compound displayed a CC50 at 3 days in “in vitro” (setting [5]) of 8.8 µM.

Turning to `CC(C)Nc1nc2c(c(=O)n1-c1ccc(-c3cc[nH]n3)cc1)C[C@@H](C)N(C(=O)c1ccc(Cl)c(Cl)c1)C2` [Compound C241, (6R)-7-(3,4-dichlorobenzoyl)-6-methyl-2-[(propan-2-yl)amino]-3-[4-(1H-pyrazol-3-yl)phenyl]-5,6,7,8-tetrahydropyrido[3,4-d]pyrimidin-4(3H)-one], the EC50 in data set [1] (setting [3]) was 0.19 µM. In addition, in “in vitro” (setting [2]), the CC50 at 3 days came out at 33.1 µM.

As to `CNC(=O)c1ccc(-n2c(N(C)Cc3cnn(-c4ccccc4)n3)nc3c(c2=O)C[C@@H](C)N(C(=O)c2ccc(Cl)c(Cl)c2)C3)cc1` [Compound C603], the EC50 in data set [1] (setting [4]) worked out at 0.21 µM. In the data set “in vitro” (setting [5]), this compound had a CC50 at 3 days of over 50 µM.

For `CNC(=O)c1ccc(-n2c(NC(C)C)nc3c(c2=O)C[C@@H](C)N(C(=O)c2ccc(OC(F)F)c(Cl)c2)C3)cc1` [Compound C475], the EC50 in data set [1] (setting [4]) stood at 0.07 µM. The same compound returned a CC50 at 3 days in “in vitro” (setting [5]) of over 50 µM.

Turning to `COc1ccc(CNc2nc3c(c(=O)n2CC2CC2)CCN(C(=O)c2ccc(Cl)c(Cl)c2)C3)cc1` [Compound C59, 3-(cyclopropylmethyl)-7-(3,4-dichlorobenzoyl)-2-{[(4-methoxyphenyl)methyl]amino}-5,6,7,8-tetrahydropyrido[3,4-d]pyrimidin-4(3H)-one], in data set [1] (setting [3]), the EC50 came out at 2.53 µM. In the data set “in vitro” (setting [2]), this compound gave a CC50 at 3 days of over 50 µM.

On to `COc1ccc(CNc2nc3c(c(=O)[nH]2)CCN(C(=O)c2ccc(Cl)c(Cl)c2)C3)cc1` [Compound C34, 7-(3,4-dichlorobenzoyl)-2-{[(4-methoxyphenyl)methyl]amino}-5,6,7,8-tetrahydropyrido[3,4-d]pyrimidin-4(3H)-one], for which the EC50 in data set [1] (setting [3]) turned out to be 4.03 µM. Also, in the data set “in vitro” (setting [2]), the CC50 at 3 days turned out to be 26.6 µM.

For `CCN(Cc1ccc2c(c1)OCO2)c1nc2c(c(=O)n1-c1ccc(C(=O)NC)cc1)C[C@@H](C)N(C(=O)c1ccc(Cl)c(Cl)c1)C2` [Compound C605], in data set [1] (setting [4]), the EC50 was determined as 0.15 µM. The same compound came in with a CC50 at 3 days in the data set “in vitro” (setting [5]) of over 50 µM.

For the compound `CC(C)Nc1nc2c(c(=O)n1-c1ccc(S(C)(=O)=O)cc1)C[C@H](C)N(C(=O)c1ccc(Cl)c(Cl)c1)C2` [Compound C100B, (6S)-7-(3,4-dichlorobenzoyl)-3-[4-(methanesulfonyl)phenyl]-6-methyl-2-[(propan-2-yl)amino]-5,6,7,8-tetrahydropyrido[3,4-d]pyrimidin-4(3H)-one], the EC50 in data set [1] (setting [3]) turned out to be 10.1 µM. The CC50 at 3 days in “in vitro” (setting [2]) is over 50 µM.

For `CNC(=O)c1ccc(-n2c(NC(C)C)nc3c(c2=O)CCN(C(=O)c2ccc(Cl)c(Cl)c2)C3)cc1Cl` [Compound C210, 2-chloro-4-[7-(3,4-dichlorobenzoyl)-4-oxo-2-[(propan-2-yl)amino]-5,6,7,8-tetrahydropyrido[3,4-d]pyrimidin-3(4H)-yl]-N-methylbenzamide], the EC50 in data set [1] (setting [3]) worked out at 0.27 µM. For the same compound, in the data set “in vitro” (setting [2]), the CC50 at 3 days was over 50 µM.

As for `CNC(=O)c1ccc(-n2c(N[C@@H](C)C3CC3)nc3c(c2=O)C[C@@H](C)N(C(=O)c2ccc(Cl)c(Cl)c2)C3)cc1` [Compound C294, 4-[(6R)-2-{[(1S)-1-cyclopropylethyl]amino}-7-(3,4-dichlorobenzoyl)-6-methyl-4-oxo-5,6,7,8-tetrahydropyrido[3,4-d]pyrimidin-3(4H)-yl]-N-methylbenzamide], the EC50 in data set [1] (setting [3]) was found to be 0.05 µM. In “in vitro” (setting [2]), the midpoint of cytotoxicity, the CC50 at 3 days, lay at 26.5 µM.

Regarding `CC(C)Nc1nc2c(c(=O)n1-c1ccc(S(C)(=O)=O)cc1)C[C@@H](c1ccc(F)cc1)N(C(=O)c1ccc(Cl)c(Cl)c1)C2` (single isomer, unassigned) [Compound C110A, (6*S)-7-(3,4-dichlorobenzoyl)-6-(4-fluorophenyl)-3-[4-(methanesulfonyl)phenyl]-2-[(propan-2-yl)amino]-5,6,7,8-tetrahydropyrido[3,4-d]pyrimidin-4(3H)-one], the EC50 in data set [1] (setting [3]) is over 50 µM. Moreover, in “in vitro” (setting [2]), the CC50 at 3 days was over 50 µM.

Consider `CC(C)Nc1nc2c(c(=O)n1-c1cccc(-c3cn[nH]n3)c1)C[C@@H](C)N(C(=O)c1ccc(Cl)c(Cl)c1)C2` [Compound C448], for which, in data set [1] (setting [4]), the EC50 is 0.12 µM. For the same compound, in “in vitro” (setting [5]), the CC50 at 3 days amounted to 27.9 µM.

For `CNC(=O)c1ccc(-n2c(N3CCCCCC3)nc3c(c2=O)C[C@@H](C)N(C(=O)c2ccc(Cl)c(Cl)c2)C3)cc1` [Compound C467], the EC50 in data set [1] (setting [4]) is 0.1 µM. In “in vitro” (setting [5]), this compound came in with a CC50 at 3 days of 30 µM.

With `CNC(=O)c1ccc(-n2c(NC(C)C)nc3c(c2=O)C[C@@H](C)N(C(=O)c2cc(F)c(Br)cc2Cl)C3)cc1` [Compound C592], in data set [1] (setting [4]), the EC50 was determined as 0.7 µM. In “in vitro” (setting [5]), the CC50 at 3 days is over 50 µM.

Consider `CC(C)Nc1nc2c(c(=O)n1-c1ccc(N3CC[C@H](O)C3)cc1)C[C@@H](C)N(C(=O)c1ccc(Cl)c(Cl)c1)C2` [Compound C200, (6R)-7-(3,4-dichlorobenzoyl)-3-{4-[(3S)-3-hydroxypyrrolidin-1-yl]phenyl}-6-methyl-2-[(propan-2-yl)amino]-5,6,7,8-tetrahydropyrido[3,4-d]pyrimidin-4(3H)-one], for which the EC50 in data set [1] (setting [3]) was 0.2 µM. Besides, in the data set “in vitro” (setting [2]), half-maximal cytotoxicity (CC50 at 3 days) was put at 35.4 µM.

With `CNC(=O)c1ccc(-n2c(N[C@H](C)c3ccc(OC(F)F)cc3)nc3c(c2=O)C[C@@H](C)N(C(=O)c2ccc(Cl)c(Cl)c2)C3)cc1` [Compound C411a], the EC50 in data set [1] (HepG2.117 cells, intracellular HBV DNA by real-time PCR, 3 days of treatment, mean value; read-out: EC50 (μM, mean value)) worked out at 1.02 µM. Further, in “in vitro” (setting [5]), the CC50 at 3 days amounted to 47.4 µM.

As for `CNC(=O)c1ccc(-n2c(N[C@@H](C)C3CCC3)nc3c(c2=O)C[C@@H](C)N(C(=O)c2ccc(Cl)c(Cl)c2)C3)cc1` (single isomer, unassigned) [Compound C406b], the EC50 in data set [1] (setting [4]) amounted to 0.16 µM. This compound also yielded a CC50 at 3 days in “in vitro” (setting [5]) of 24.5 µM.
